Usually IC50 stands for the concentration needed to halve the response being measured. As a reminder, the EC90 is the point of the concentration-response curve where the effect stands at 90%. Low values mean greater potency, high ones weaker potency.

Structures are written as SMILES. Some results are limits rather than exact numbers.

The target of one data set is T1, HSV-1 protease (Human herpesvirus 1, UniProt P10210).
T1 construct: 6xHis (N); made in house; host or cells: baculovirus expression system
Nature of the data set: Enzymatic assay for HSV-1 protease (assembly) inhibitor, fluorescence polarization. Conditions: read-out: HSV-1 Enzyme inhibition IC50. In kind it is biochemical. A digest of the protocol:
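Fluorescence polarization read-out: after avidin stop, cleavage of a biotinylated DTAF-labelled release-site peptide by recombinant N-His6 HSV-1 protease was compared with no-inhibitor wells. Enzyme and compound were preincubated 30 min, then substrate reacted 60 min, all at room temperature, pH 7.4 citrate buffer with TCEP.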

The next data set concerns HSV-1. The experiment in a line: Antiviral activity, HSV-1 in Vero cells, plaque method. It is filed as cell-based. The note with it: Human alphaherpesvirus 1, 20 hours, 90% inhibition of plaque formation. A digest of the protocol:
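This is a virus-yield read-out. The culture medium was frozen at −80° C and thawed, and the plaques it formed were counted. It came from Vero monolayers infected with 50,000 pfu HSV-1 and then exposed to the compound for 20 h at 37° C. EC90 is the concentration inhibiting 90% of plaque formation relative to the untreated infected control.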

The subject of a further data set is Vero cells. Nature of the data set: Cytotoxicity, Vero cells, Alamar Blue. In kind it is cell-based. The note with it: 25 μM, 20 hours. On the procedure: An Assay Method for Cytotoxicity
The Vero cells were sown on a 96-well plate and then cultured overnight. The culture supernatant was removed, and 200 μl of 2% FBS-DMEM comprising 25 μM of the test compound was added. In this case, a substance to which 2% FBS-DMEM not comprising any test compound had been added was determined as a control. These cells were incubated in the presence of 5% CO2 at 37° C. for 20 hours. Alamar Blue (20 μl) was added to the cells, and cells were incubated for about 6 hours until the color of the control changed. The ratio of the absorbance was assayed using a microplate reader for absorption, and the value relative to the control was determined to be the ratio of living cells.

T1 sequence (P10210 1-247): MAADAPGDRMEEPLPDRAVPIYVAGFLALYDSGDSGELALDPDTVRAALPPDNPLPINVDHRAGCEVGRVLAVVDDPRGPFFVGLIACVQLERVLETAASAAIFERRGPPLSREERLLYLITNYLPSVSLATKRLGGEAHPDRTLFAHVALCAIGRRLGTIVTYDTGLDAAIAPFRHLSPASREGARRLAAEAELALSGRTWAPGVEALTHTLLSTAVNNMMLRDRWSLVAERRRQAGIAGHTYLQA

As to `Cc1c(NC(=O)OC(C)(C)C)ccc2nc(N(C)[C@@H](C)C(=O)NCc3ccncc3)oc(=O)c12` [Compound No.73, [5-Methyl-2-(methyl-{1S-[(pyridin-4-ylmethyl)-carbamoyl]-ethyl}-amino)-4-oxo-4H-benzo[d][1,3]oxazin-6-yl]-carbamic acid tert-butyl ester], the IC50 at HSV-1 protease was found to be 1 µM. Besides, the EC90 in the data set on HSV-1 is over 12.5 µM. Moreover, in the data set with Vero cells, the “Cell viability (% of control)” value worked out at 79.8%.

Consider `Cc1c(NC(=O)OC(C)(C)C)ccc2nc(N[C@@H](CCc3ccccc3)C(=O)N(C)CCc3ccncc3)oc(=O)c12` [Compound No.56, (5-Methyl-2-{1S-[methyl-(2-pyridin-4-yl-ethyl)-carbamoyl]-3-phenyl-propylamino}-4-oxo-4H-benzo[d][1,3]oxazin-6-yl)-carbamic acid tert-butyl ester], for which, at HSV-1 protease, the IC50 worked out at 3.2 µM. The EC90 with HSV-1 came out at 3.7 µM. For the same compound, the “Cell viability (% of control)” value in the data set on Vero cells is given as 77.9%.

For the compound `Cc1c(NC(=O)OC(C)(C)C)ccc2nc(N[C@@H](CCc3ccccc3)C(=O)N(C)CCc3cccnc3)oc(=O)c12` [Compound No.70, (5-Methyl-2-{1S-[methyl-(2-pyridin-3-yl-ethyl)-carbamoyl]-3-phenyl-propylamino}-4-oxo-4H-benzo[d][1,3]oxazin-6-yl)-carbamic acid tert-butyl ester], the IC50 at HSV-1 protease was 0.9 µM. The same compound came in with an EC90 in the data set with HSV-1 of under 3.2 µM. In the data set with Vero cells, the “Cell viability (% of control)” value is 48.0%.

Turning to `Cc1c(NC(=O)OC(C)(C)C)ccc2nc(N[C@@H](CC3CCCCC3)C(=O)N(C)Cc3ccccn3)oc(=O)c12` [Compound No.63, {2-[2-Cyclohexyl-1S-(methyl-pyridin-2-ylmethyl-carbamoyl)-ethylamino]-5-methyl-4-oxo-4H-benzo[d][1,3]oxazin-6-yl}-carbamic acid tert-butyl ester], the half-inhibitory concentration (IC50) at HSV-1 protease was 1.2 µM. This compound also yielded a concentration for an effect of 90% (EC90) with HSV-1 of under 3.2 µM. Besides, in the data set with Vero cells, the “Cell viability (% of control)” value came to 60.1%.

With `Cc1c(NC(=O)OC(C)(C)C)ccc2nc(N[C@@H](Cc3ccccc3)C(=O)N(C)Cc3ccccn3)oc(=O)c12` [Compound No.57, {5-Methyl-2-[1S-(methyl-pyridin-2-ylmethyl-carbamoyl)-2-phenyl-ethylamino]-4-oxo-4H-benzo[d][1,3]oxazin-6-yl}-carbamic acid tert-butyl ester], the IC50 on HSV-1 protease stood at 1.7 µM. The compound also registered a 90% effect concentration (EC90) in the data set on HSV-1 of under 3.2 µM. For the same compound, the “Cell viability (% of control)” value in the data set on Vero cells stood at 71.3%.

Take `Cc1c(NC(=O)c2ccc(Br)cc2)ccc2nc(NC(C)(C)C(=O)N(C)CCc3ccccn3)oc(=O)c12` [Compound No.154, 4-Bromo-N-(5-methyl-2-{1-methyl-1-[methyl-(2-pyridin-2-yl-ethyl)-carbamoyl]-ethylamino}-4-oxo-4H-benzo[d][1,3]oxazin-6-yl)-benzamide]: at HSV-1 protease, the IC50 came to 2.4 µM. Moreover, the 90% effect concentration (EC90) in the data set on HSV-1 came to 5.4 µM. Further, the “Cell viability (% of control)” value with Vero cells is 28.3%.

Take `Cc1c(NC(=O)OC(C)(C)C)ccc2nc(N(C)[C@@H](C)C(=O)NCc3ccccn3)oc(=O)c12` [Compound No.71, [5-Methyl-2-(methyl-{1S-[(pyridin-2-ylmethyl)-carbamoyl]-ethyl}-amino)-4-oxo-4H-benzo[d][1,3]oxazin-6-yl]-carbamic acid tert-butyl ester]: the IC50 at HSV-1 protease was 0.8 µM. This compound also registered a 90% effect concentration (EC90) in the data set with HSV-1 of over 12.5 µM. Further, the “Cell viability (% of control)” value in the data set on Vero cells was determined as 107.0%.

Consider `CCCCOc1ccc(C(=O)Nc2ccc3nc(NC(C)(C)C(=O)N(C)CCc4ccccn4)oc(=O)c3c2C)cc1` [Compound No.165, 4-Butoxy-N-(5-methyl-2-{1-methyl-1-[methyl-(2-pyridin-2-yl-ethyl)-carbamoyl]-ethylamino}-4-oxo-4H-benzo[d][1,3]oxazin-6-yl)-benzamide], for which the IC50 on HSV-1 protease is 2 µM. The compound also yielded a concentration for an effect of 90% (EC90) in the data set on HSV-1 of 3.6 µM. For the same compound, the “Cell viability (% of control)” value in the data set with Vero cells is recorded as 16.9%.

In the case of `Cc1c(NC(=O)OC(C)(C)C)ccc2nc(N3Cc4ccccc4C[C@H]3C(=O)N(C)CCc3ccccn3)oc(=O)c12` [Compound No.99, (5-Methyl-2-{3S-[methyl-(2-pyridin-2-yl-ethyl)-carbamoyl]-3,4-dihydro-1H-isoquinolin-2-yl}-4-oxo-4H-benzo[d][1,3]oxazin-6-yl)-carbamic acid tert-butyl ester], the concentration for half-maximal inhibition (IC50) on HSV-1 protease turned out to be 5.2 µM. Moreover, in the data set with HSV-1, the concentration for an effect of 90% (EC90) is 10.1 µM. In the data set on Vero cells, the “Cell viability (% of control)” value came out at 53.2%.

Take `Cc1c(NC(=O)c2ccc(F)cc2)ccc2nc(NC(C)(C)C(=O)N(C)CCc3ccccn3)oc(=O)c12` [Compound No.149, 4-Fluoro-N-(5-methyl-2-{1-methyl-1-[methyl-(2-pyridin-2-yl-ethyl)-carbamoyl]-ethylamino}-4-oxo-4H-benzo[d][1,3]oxazin-6-yl)-benzamide]: the IC50 at HSV-1 protease amounted to 1.5 µM. Besides, the EC90 with HSV-1 amounted to 10.6 µM. In the data set with Vero cells, the “Cell viability (% of control)” value amounted to 65.4%.

For the compound `COC(=O)c1ccc(C(=O)Nc2ccc3nc(NC(C)(C)C(=O)N(C)CCc4ccccn4)oc(=O)c3c2C)cc1` [Compound No.150, N-(5-Methyl-2-{1-methyl-1-[methyl-(2-pyridin-2-yl-ethyl)-carbamoyl]-ethylamino}-4-oxo-4H-benzo[d][1,3]oxazin-6-yl)-tetraphthalic acid methyl ester], the IC50 on HSV-1 protease turned out to be 1.4 µM. Moreover, in the data set with HSV-1, the EC90 was determined as 6.1 µM. Also, in the data set with Vero cells, the “Cell viability (% of control)” value amounted to 81.5%.

On to `COc1cccc(C(=O)Nc2ccc3nc(NC(C)(C)C(=O)N(C)CCc4ccccn4)oc(=O)c3c2C)c1` [Compound No.162, 3-Methoxy-N-(5-methyl-2-{1-methyl-1-[methyl-(2-pyridin-2-yl-ethyl)-carbamoyl]-ethylamino}-4-oxo-4H-benzo[d][1,3]oxazin-6-yl)-benzamide], for which the IC50 on HSV-1 protease came out at 1.8 µM. This compound also had an EC90 in the data set on HSV-1 of 10.2 µM. Also, in the data set with Vero cells, the “Cell viability (% of control)” value is listed as 75.5%.

Turning to `Cc1c(NC(=O)OC(C)(C)C)ccc2nc(N[C@H](C(=O)NCc3ccncc3)C(C)C)oc(=O)c12` [Compound No.25, (5-Methyl-2-{2-methyl-1S-[(pyridin-4-ylmethyl)-carbamoyl]-propylamino}-4-oxo-4H-benzo[d][1,3]oxazin-6-yl)-carbamic acid tert-butyl ester], the IC50 on HSV-1 protease was over 20 µM. For the same compound, the concentration for an effect of 90% (EC90) in the data set with HSV-1 is over 25 µM. For the same compound, in the data set with Vero cells, the “Cell viability (% of control)” value was 100.0%.

On to `Cc1c(NC(=O)c2ccccc2[N+](=O)[O-])ccc2nc(NC(C)(C)C(=O)N(C)CCc3ccccn3)oc(=O)c12` [Compound No.140, N-(5-Methyl-2-{1-methyl-1-[methyl-(2-pyridin-2-yl-ethyl)-carbamoyl]-ethylamino}-4-oxo-4H-benzo[d][1,3]oxazin-6-yl)-2-nitro-benzamide], for which, at HSV-1 protease, the IC50 amounted to 4.2 µM. For the same compound, in the data set with HSV-1, the EC90 was over 12.5 µM. Also, the “Cell viability (% of control)” value in the data set with Vero cells was 96.8%.

As for `Cc1c(NC(=O)C=Cc2ccccc2)ccc2nc(NC(C)(C)C(=O)N(C)CCc3ccccn3)oc(=O)c12` [Compound No.159, N-(5-Methyl-2-{1-methyl-1-[methyl-(2-pyridin-2-yl-ethyl)-carbamoyl]-ethylamino}-4-oxo-4H-benzo[d][1,3]oxazin-6-yl)-3-phenyl-acrylamide], the IC50 on HSV-1 protease was 1.4 µM. In the data set with HSV-1, this compound yielded an EC90 of 10.8 µM. Moreover, the “Cell viability (% of control)” value in the data set on Vero cells was 15.9%.

As to `Cc1c(NC(=O)c2sccc2Cl)ccc2nc(NC(C)(C)C(=O)N(C)CCc3ccccn3)oc(=O)c12` [Compound No.179, 3-Chloro-thiophene-2-carboxylic acid (5-methyl-2-{1-methyl-1-[methyl-(2-pyridin-2-yl-ethyl)-carbamoyl]-ethylamino}-4-oxo-4H-benzo[d][1,3]oxazin-6-yl)-amide], on HSV-1 protease, the IC50 was 1 µM. In the data set with HSV-1, this compound showed an EC90 of 6.6 µM. Moreover, the “Cell viability (% of control)” value in the data set on Vero cells was 61.7%.

On to `Cc1c(NC(=O)c2ccccc2Br)ccc2nc(NC(C)(C)C(=O)N(C)CCc3ccccn3)oc(=O)c12` [compound 199, 2-Bromo-N-(5-methyl-2-{1-methyl-1-[methyl-(2-pyridin-2-yl-ethyl)-carbamoyl]-ethylamino}-4-oxo-4H-benzo[d][1,3]oxazin-6-yl)-benzamide], for which the IC50 on HSV-1 protease is 3 µM. In the data set with HSV-1, this compound registered an EC90 of 4.1 µM. The “Cell viability (% of control)” value with Vero cells was determined as 56.9%.

Take `CCCCCCCC(=O)Nc1ccc2nc(NC(C)(C)C(=O)N(C)CCc3ccccn3)oc(=O)c2c1C` [Compound No.196, Octanoic acid (5-methyl-2-{1-methyl-1-[methyl-(2-pyridin-2-yl-ethyl)-carbamoyl]-ethylamino}-4-oxo-4H-benzo[d][1,3]oxazin-6-yl)-amide]: the half-inhibitory concentration (IC50) at HSV-1 protease is 0.8 µM. In addition, the EC90 with HSV-1 was determined as 11.5 µM. The “Cell viability (% of control)” value in the data set on Vero cells is recorded as 86.5%.

In the case of `Cc1c(NC(=O)OC(C)(C)C)ccc2nc(N3CCCC[C@H]3C(=O)NCCc3ccccn3)oc(=O)c12` [Compound No.105, {5-Methyl-4-oxo-2-[2S-(2-pyridin-2-ylethylcarbamoyl)-piperidin-1-yl]-4H-benzo[d][1,3]oxazin-6-yl}-carbamic acid tert-butyl ester], on HSV-1 protease, the 50% inhibitory concentration (IC50) was found to be 2.9 µM. In addition, the EC90 in the data set on HSV-1 was over 12.5 µM. In the data set with Vero cells, the “Cell viability (% of control)” value amounted to 55.6%.
